From US8222242B2, “Nitric oxide releasing compounds” (The Regents of the University of California, priority 2008, dated 2012)

Tests used:
D. melanogaster = experiment: Viability of injected D. melanogaster; conditions: 1 μl injected; 1 mM (ascorbic acid 5 mM); observed 48 h
Procedure: (A) Tubular secretion rates of Malpighian tubules isolated from D. melanogaster were measured, using half-strength Schneider's medium. Basal tubular secretion was measured at 0, 10, and 20 minutes; at 20 minutes (depicted by the arrow) 1 mM cobinamide (Cbi, open circles), 1 mM NO-Cbi (filled circles), 0.5 mM Deta-NONOate (diamonds), or 100 μM 8-CPT-cGMP (inverted triangles) were added. Results are the mean±S.D. of three independent experiments performed on Malpighian tubule pairs from 10 flies. […] (B). Flies were injected with 1 μl of 1 mM cobinamide (Cbi, open circles), 1 mM NO-Cbi (filled circles), 0.5 mM Deta-NONOate (diamonds), or 1 mM spermine NONOate (squares). […] The data are plotted as a Kaplan-Meier survival curve, and are the mean±SD of three experiments, with 10 flies per condition per experiment. […] (C). Flies were injected with 1 μl of water (control, open bar), 1 mM cobinamide (Cbi, grey bar), or 1 mM NO-Cbi (black bars). Flies were killed and extracts were prepared at 3 hours for the water- and cobinamide-injected flies, and at the indicated times for the NO-Cbi-injected flies. Nitrite and nitrate in the extracts were measured using an enhanced Griess reagent.
The fluid volume of a fly is […], and thus, the injected agent was diluted about 10-fold. […]

[1] = tested on: vasodilator-stimulated phosphoprotein (VASP) phosphorylated on Ser239 in CS-54 rat vascular smooth muscle cells; experiment: VASP phosphorylation in CS-54 cells (immunoblot); format: cell-based; conditions: added to CS-54 cells; 30 μM cobinamide shown
Procedure: CS-54 rat vascular smooth muscle cells were treated with the indicated concentrations of NO-Cbi for 1 hour (A), or 10 μM NO-Cbi for the indicated times (B and C). […] In A and B, “Con” refers to control, which was cells treated with water. As indicated, the effects of 30 μM cobinamide (Cbi) and 100 μM 8-CPT-cGMP (cGMP) are shown for comparison. In A and B, similar results were obtained in two other experiments.
Briefly, cells treated with an NO-releasing agent were extracted rapidly in a sodium dodecyl sulfate (SDS) containing sample buffer, and the cell extracts were subjected to SDS-polyacrylamide gel electrophoresis. Phospho-VASP was assessed by immunoblotting using an antibody specific for VASP phosphorylated on Ser259 (Smolenski A et al. (1998) J. Biol. Chem. 273:20029-35).
To determine if NO released from NO-Cbi can have a physiologic effect in cultured cells, vasodilator-stimulated phosphoprotein (VASP) phosphorylation was assessed in CS-54 cells.

mice = format: in vivo, mouse; conditions: for effect on blood pressure (controls) / effect on heart rate (controls): intraperitoneally, 8 mM Cbi(II) shown
Procedure: Mice were anesthetized with 1.5% isoflurane gas, and after achieving a stable blood pressure and pulse (about 10 minutes), they were injected intraperitoneally with 100 μl of […] 8 mM Cbi(II) (open circles, solid line), 8 mM NO-Cbi (filled circles, dashed line), or 8 mM nitroglycerin (squares, dotted lines) (panels a and b). Control refers to anesthetized mice who received 100 μl water (triangles, solid line). In panel C, 100 μl of 6 mM NO-Cbi was injected at 0, 32, and 64 minutes as indicated by the arrows. Systolic and diastolic blood pressures, and pulse rate, were measured at the indicated times on the tail artery using a non-invasive tail cuff. The percent change in mean arterial pressure (A and C), and pulse rate (B and C) are shown. For panels A and B, data are the mean±SD of results from five mice for NO-Cbi studied on separate days, and four mice for the other conditions. […] Data in panel C are the mean±SD of results from three mice studied on different days.
Pulse, and systolic and diastolic blood pressures, were measured non-invasively in the tail artery of mice by restraining mice on a warming platform maintained at ˜38° C. The base of the tail was placed in a computer-controlled pneumatic cuff, and the distal tail was placed in a sensor assembly consisting of a light emitting diode and a photodiode detector. Baseline measurements were made with the mice awake in a dark chamber. The mice were then anesthetized with 3% isoflurane in an induction chamber, and returned to the platform where they received 1.5% isoflurane with 2 liter per minute of oxygen via a nose cone; the isoflurane caused a small, but stable, drop in blood pressure. Drugs in a volume of 100 ul were injected intraperitoneally into the mice, and pulse and blood pressure were measured every 5-15 minute, taking five readings at each time point.
To determine the effect of NO release from NO-Cbi in an intact mammal, blood pressure and pulse of mice injected intraperitoneally with NO-Cbi were measured.

[2] = tested on: CS-54 rat vascular smooth muscle cells; conditions: added to CS-54 cells
Procedure: CS-54 rat vascular smooth muscle cells were treated with the indicated concentrations of NO-Cbi for 1 hour (A), or 10 μM NO-Cbi for the indicated times (B and C). […] (C) Cell extracts were clarified by centrifugation, and nitrite and nitrate in the extracts were measured by an enhanced Griess reagent method. In A and B, “Con” refers to control, which was cells treated with water. As indicated, the effects of 30 μM cobinamide (Cbi) and 100 μM 8-CPT-cGMP (cGMP) are shown for comparison. In A and B, similar results were obtained in two other experiments.
Nitrite and nitrate were measured in CS-54 cell extracts and fly extracts using a kit from Active Motif based on an enhanced Griess reagent, as described previously (Broderick K E et al. (2006) FASEB J. 20:1865-73).

[3] = tested on: Malpighian tubules isolated from D. melanogaster; experiment: Malpighian tubule fluid secretion; parameters: species or system Drosophila melanogaster; conditions: 1 mM cobinamide or Cbi(II), 5 mM ascorbic acid, half-strength Schneider's medium
Procedure: Malpighian tubules are the osmoregulatory organs of D. melanogaster, corresponding to vertebrate kidneys. Tubular fluid secretion is stimulated by NO and cGMP, and fluid secretion rates were measured as described previously (Broderick K E et al. (2005) J. Biol. Chem. 280:8678-85). Briefly, the Malpighian tubule pair of a fly was resected and suspended in mineral oil. […]
Malpighian tubules are an excellent model for studying the effects of a drug on an intact organ system (Broderick K E et al. (2003) Am. J. Physiol. Cell Physiol. 285:C1207-18). […] Deta-NONOate may not be affected as much by cysteine in the medium, because it has a slower NO release rate and the intact drug can be transported intracellularly before much NO is released.

isolated mouse hearts = experiment: Coronary flow in isolated perfused mouse hearts (Langendorff)
Procedure: Hearts and aortas were removed from NIH Swiss mice anesthetized with sodium nembutal, and coronary flow was measured in the hearts using a Langendorff preparation (FIG. 5a) and relaxation of aortic rings was measured after inducing constriction of the rings with prostaglandin F2α (FIG. 5b). The hearts and aortic rings were treated with a range of concentrations of NO-Cbi (filled circles), nitroglycerin (open circles, dotted line, FIG. 5a), and sodium nitroprusside (open circles, FIG. 5b). Coronary flow was measured on the same hearts for both NO-Cbi and nitroglycerin after an appropriate wash-out period between drugs, and aortic ring relaxation was measured on two rings from the same aorta for NO-Cbi and sodium nitroprusside. The data are the mean of two independent experiments performed on two separate hearts in each experiment (FIG. 5a), and the mean±SEM of two independent experiments performed on three separate aortic rings in each experiment (FIG. 5b).
Coronary flow was measured in isolated perfused mouse hearts in a Langendorff system, and was 10.8±0.5 ml/min/g wet weight (n=7 hearts) under basal conditions. […] The latter value is similar to maximal coronary flow of 24.6±1.8 ml/min/g wet weight obtained with 62 μM adenosine. For nitroglycerin to increase coronary flow to that of NO-Cbi, the nitroglycerin concentration had to be increased to 770 μM, or about 100-fold greater than the NO-Cbi concentration (FIG. 5a).

[4] = cited from earlier work
rabbits = experiment: Rabbits with phenylephrine-induced hypertension; format: in vivo, rabbit; conditions: phenylephrine 5 to 20 μg/kg/min continuous intravenous infusion
Procedure: Phenylephrine was given by continuous intravenous infusion to an anesthetized rabbit at increasing rates from 5 to 20 μg/kg/min; the rabbit remained on the highest phenylephrine infusion rate until the end of the experiment (darker arrows with “A”-shaped arrowheads indicate start times of each increasing dose). At 49 minutes, an infusion of NO-Cbi was started at a rate of 3 μg/kg/min (2.9 nmol/kg/min), with the infusion rate doubled at 58 minutes (lighter arrows with triangular-shaped arrowheads indicate start times of infusions). Systolic and diastolic blood pressure recordings from an intra-arterial catheter are shown. Changes in total hemoglobin, oxyhemoglobin, and deoxyhemoglobin concentrations were measured by continuous wave near-infrared spectroscopy over the left thigh muscle. Phenylephrine caused a progressive decrease in total hemoglobin and oxyhemoglobin concentrations, which reversed within seconds of starting the NO-Cbi infusion.
Decreased tissue oxygenation as occurred in the experiments shown in FIGS. 7 and 8 would clearly be an undesirable effect of treating hypertensive patients with NO-Cbi. However, lowering blood pressure of a hypertensive patient is very different from lowering blood pressure of a normotensive subject, and the experiments described in Example 15 rabbits with normal or low (due to anesthesia) blood pressure. To simulate a hypertensive state, the blood pressure of rabbits was raised using a continuous intravenous infusion of phenylephrine, a peripheral vasoconstrictor (FIG. 9). As the rabbit's blood pressure increased above normal, tissue perfusion and oxygenation decreased, as evidenced by a decrease in total hemoglobin and oxyhemoglobin concentrations in muscle.
Thus, in an animal with drug-induced hypertension, NO-Cbi improved tissue perfusion and oxygenation as it lowered blood pressure.

SMILES	effect on VASP phosphorylation (controls) [1]	effect on blood pressure (controls) (mice)	effect on heart rate (controls) (mice)	effect on nitrite/nitrate levels (controls) [2]	also measured
C/C1=C2/[N-][C@H]([C@H](CC(N)=O)[C@@]2(C)CCC(=O)NC[C@@H](C)O)[C@]2(C)N=C(/C(C)=C3N=C(/C=C4N=C1[C@@H](CCC(N)=O)C\4(C)C)[C@@H](CCC(N)=O)[C@]\3(C)CC(N)=O)[C@@H](CCC(N)=O)[C@]2(C)CC(N)=O.[Co+3] [cobinamide, reference compound]	Neither cobinamide, Cbi(II), or ascorbate had any effect	no significant effect	no significant effect	Neither cobinamide, Cbi(II), or ascorbate had any effect	fly killing / toxicity to flies (D. melanogaster): not toxic to flies; effect on tubular secretion (controls) [3]: Neither cobinamide nor Cbi(II) significantly affected tubular secretion
Nc1ncnc2c1ncn2[C@@H]1O[C@H](CO)[C@@H](O)[C@H]1O [adenosine]	–	–	–	–	maximal coronary flow (isolated mouse hearts; 62 μM): 24.6±1.8 ml/min/g wet weight
O=[N+]([O-])OCC(CO[N+](=O)[O-])O[N+](=O)[O-] [nitroglycerin]	–	–	–	–	concentration relative to the NO-Cbi concentration for equal coronary flow (isolated mouse hearts): about 100 fold; coronary flow (isolated mouse hearts; 12.0 μM infused): 15.3±1.0 ml/min/g wet weight; increase of coronary flow (isolated mouse hearts; 12.0 μM infused): 34%; concentration needed to increase coronary flow to that of NO-Cbi (isolated mouse hearts; versus 7 μM NO-Cbi): 770 µM; systolic and diastolic blood pressure (mice; 0.8 μmol (100 μl of 8 mM) intraperitoneally, anesthetized mice): late decrease in blood pressure
NCCN(CCN)/[N+]([O-])=N/O [Deta-NONOate]	–	–	–	–	half-life [4]: ~50 h
CNC[C@H](O)c1cccc(O)c1 [phenylephrine, reference compound]	–	–	–	–	systolic and diastolic blood pressure (rabbits): increased the systolic and diastolic blood pressure; total hemoglobin and oxyhemoglobin in muscle (rabbits): decreased total hemoglobin and oxyhemoglobin in the muscle
C/C1=C2/[N-][C@H]([C@H](CC(N)=O)[C@@]2(C)CCC(=O)NC[C@@H](C)O)[C@]2(C)N=C(/C(C)=C3N=C(/C=C4N=C1[C@@H](CCC(N)=O)C\4(C)C)[C@@H](CCC(N)=O)[C@]\3(C)CC(N)=O)[C@@H](CCC(N)=O)[C@]2(C)CC(N)=O.[Co] [Cbi(II), reference compound]	Neither cobinamide, Cbi(II), or ascorbate had any effect	no significant effect	no significant effect	Neither cobinamide, Cbi(II), or ascorbate had any effect	effect on tubular secretion (controls) [3]: Neither cobinamide nor Cbi(II) significantly affected tubular secretion
O=C1O[C@H]([C@@H](O)CO)C(O)=C1O [ascorbate, ascorbic acid, reference compound]	Neither cobinamide, Cbi(II), or ascorbate had any effect	no significant effect	no significant effect	Neither cobinamide, Cbi(II), or ascorbate had any effect	–
